Drawing on BindingDB's records for doi:10.1016/s0960-894x(00)00142-6 (University of Wales, 2000), this text covers IC50 for four compounds.

Each structure is given as a SMILES string.

This assay addresses Glutathione S-transferase 2 (Onchocerca volvulus). The assay is described as follows: The compound was tested for it's inhibitory activity against Onchocerca volvulus Glutathione S-transferase 2.
By IC50 is commonly meant the concentration at which inhibition is half-maximal. Lower therefore signals higher potency. In turn, `NC(CCC(=O)NC(CSC1CCCC(=O)C1)C(=O)NCC(=O)O)C(=O)O` (centres undefined) [2-Amino-4-[1-(carboxymethyl-carbamoyl)-2-(3-oxo-cyclohexylsulfanyl)-ethylcarbamoyl]-butyric acid] had an IC50 of 220 µM.
In turn, `CC(C)C(=O)CC(SCC(NC(=O)CCC(N)C(=O)O)C(=O)NCC(=O)O)c1ccccc1` (centres undefined) [2-Amino-4-[1-(carboxymethyl-carbamoyl)-2-(4-methyl-3-oxo-1-phenyl-pentylsulfanyl)-ethylcarbamoyl]-butyric acid] had a concentration for half-maximal inhibition (IC50) of 31.9 µM.
The compound `CCCCOC(=O)CC(SCC(NC(=O)CCC(N)C(=O)O)C(=O)NCC(=O)O)C(=O)O` (centres undefined) [2-[2-(4-Amino-4-carboxy-butyrylamino)-2-(carboxymethyl-carbamoyl)-ethylsulfanyl]-succinic acid 4-butyl ester] returned an IC50 of 48 µM.
Take `N[C@@H](CCC(=O)N[C@@H](CS[C@H](CC(=O)O)C(=O)O)C(=O)NCC(=O)O)C(=O)O` [2-[2-(4-Amino-4-carboxy-butyrylamino)-2-(carboxymethyl-carbamoyl)-ethylsulfanyl]-succinic acid]: it took 19.1 µM to reach half-maximal inhibition (IC50).
